Patent US8404829B2, “Predictive and therapeutic markers in ovarian cancer” (The Regents of the University of California, priority 2005, dated 2013)
Entries after “also recorded” stand apart in the source; their conditions may differ.

Experiments:
[1] = test system: HEYA8 or SKOV3ip1 tumors; experiment: Therapeutic study in ovarian tumor xenografts (tumor size); assay type: in vivo, mice; details: siRNA 150 μg/kg twice weekly, paclitaxel 100 μg weekly, four weeks
Experimental: For therapeutic studies, mice were injected with HEYA8 or SKOV3ip1 cells. One week later, mice were treated twice weekly with DOPC-EPHA2 siRNA (150 μg/kg) alone or in combination with weekly paclitaxel (100 μg), for four consecutive weeks.

[2] = test system: CAOV4 and HEY cell lines in which PVT1 and MYC are highly amplified; experiment: Cell cycle / proliferation after siRNA treatment (BrdUrd/DNA distributions), PVT1/MYC amplified lines; assay type: cell-based, human; details: for cell cycle progression (BrdUrd/DNA distributions): CAOV4 and HEY, 48 hours after siRNA treatment, FIG. 7A; for cell proliferation / G1-phase block: ovarian cancer cell lines in which PVT1 is amplified and over expressed
Experimental: (§1) In this system, stock cell lines are transferred from flasks and 5×10^4 cells will be seeded into 24-well cell culture plates and transferred to a multi-plate incubator. Individual wells are treated with 40-120 nM siRNA and 2.5-7.5 μg/ml Lipofectamine 2000 (Invitrogen) in […] Opti-MEM reduced serum medium (Invtrogen) for 4 hours (with or without drug) in order to induce the necessary experimental perturbations. After 4 hours, the Opti-MEM are replaced with complete culture medium and the cells cultured for an additional 44 hours. Cell lysates then are extracted and re-formatted into standard 96-well microtiter plates using a Tecan multi-channel liquid handling system. These plates are then fed separately into RNA transcript, protein expression or cell analysis pipelines. For cellular profiling, treated cell culture plates are transported to a Cellomics High Content Imaging system (see below). Transcript profiling is accomplished using Affymetrix U133A/B arrays processed using the Affymetrix High Throughput Analysis system (installed at LBNL in December 2004 under an Affymetrix early access agreement). Protein profiling is accomplished using reverse phase protein at MD Anderson using lysate array technology in cases where suitable antibodies exist. Important pathway proteins are assessed using western blotting in cases where antibodies are not sufficiently specific for use on protein lysate arrays.
(§2) A Becton Dickinson cytometer can be used to measure DNA/BrdUrd distributions and/or DNA distributions during treatment. […] For BrdUrd/DNA analysis, cells are pulse labeled for 30 min. with 1 μM BrdUrd, fixed in 70% ethanol, treated with RNase, denatured and stained with propidium iodide (PI) and a fluorescently labeled antibody against BrdUrd as described in Dolbeare, F., Gratzner, H., Pallavicini, M. G. & Gray, J. W. Flow cytometric measurement of total DNA content and incorporated bromodeoxyuridine. Proc Natl Acad Sci USA 80, 5573-7 (1983), and placed in 96 well trays for analysis.
In FIGS. 7B and 7C, the BrdU data is measuring proportions of cell cycle phases of ovarian cancer cell lines that overexpress PVT1. Referring to the graphs in FIGS. 7B and 7C, cells were left untreated (control, blue bar), treated with lipofectamine 2000 (lipo, purple bar) and green fluorescent protein (GFP; green bar) as controls or treated with PVT1 siRNA (PVT1 si, yellow bar, SEQ ID NO: 3 and 4). The error bars are standard deviation values from more than one experiment. If there are no error bars on a column, it means the experiment was not repeated.

[3] = test system: OV90, in which MYC and PVT1 are not amplified; cell lines not expressing PVT1; experiment: Cell cycle / growth after siRNA treatment (BrdUrd/DNA distributions), unamplified lines; assay type: cell-based, human; details: for cell cycle progression (BrdUrd/DNA distributions): OV90 (unamplified), 48 hours after siRNA treatment, FIG. 7A
[4] = test system: HEY and CAOV4 cells; experiment: Apoptosis after siRNA treatment (phase contrast, PI DNA content distribution), PVT1 amplified lines; assay type: cell-based, human; details: for apoptosis induced DNA fragments (DNA distribution below the G1/diploid peak): CAOV4 cells, FIG. 9A; for induction of apoptosis / cell death: ovarian cancer cell lines in which PVT1 is amplified and over expressed
Experimental: as §1, §2
Referring again to FIG. 8, an additional measure of apoptosis can include staining with an Alexa Fluor® 488 conjugate of annexin V (Molecular Probes) and staining with propidium iodide (PI). PI is impermeable to apoptotic cells and live cells, but can enter and bind nucleic acids in necrotic cells. An apoptotic index can be assessed by measuring the fraction of “sub diploid” cells after staining for DNA content using PI as illustrated in FIG. 8A. Cells are fixed in 70% ethanol, treated with RNAse and placed in 96-well trays for DNA content analysis.

[5] = test system: cell lines that do not amplify or over express PVT1; experiment: Apoptosis / cell death after PVT1 siRNA, lines without PVT1 amplification; assay type: cell-based, human; details: cell lines in which PVT1 is not amplified or over expressed
Experimental: as §1, with “Transcript profiling is accomplished using Affymetrix U133A/B arrays processed using the Affymetrix High Throughput Analysis system (installed at LBNL in December 2004 under an Affymetrix early access agreement). Protein profiling is accomplished using reverse phase protein at MD Anderson using lysate array technology in cases where suitable antibodies exist.” left out
Referring again to FIG. 8, an additional measure of apoptosis can include staining with an Alexa Fluor® 488 conjugate of annexin V (Molecular Probes) and staining with propidium iodide (PI). […] An apoptotic index can be assessed by measuring the fraction of “sub diploid” cells after staining for DNA content using PI as illustrated in FIG. 8A. […]

[6] = test system: ovarian cancer cell lines that amplify PVT1; experiment: High content imaging for apoptosis (Cellomics Multiparameter Apoptosis 1 HitKit), lines that amplify PVT1; assay type: cell-based, human
Description: (§3) A high content fluorescence image analysis system at LBNL (Cellomics, KineticScan) was used to characterize cellular responses to siRNA inhibitors including proliferation rate, apoptotic rate and motility. The KineticScan is an automated imaging instrument that scans through the bottom of clear-bottom 24-well plates, focuses on a field of cells, and acquires images at each selected color channel. The Cellomics software identifies and measures individual features and structures within each cell in a field of cells, so that up to hundreds of cell samples can be analyzed in parallel. The software then tabulates and presents the results in user-defined formats.
(§4) Referring to FIG. 10, PVT siRNA-treated ovarian cell lines were analyzed by high content imaging for apoptosis. Apoptotic cells were detected based on nuclear morphology, mitochondrial mass and/or membrane potential, and f-actin content following staining with the Cellomics Multiparameter Apoptosis 1 HitKit™. Nuclear morphology (i.e., condensation or fragmentation) are measured after staining with Hoechst 33342. Mitochondrial membrane potential and mitochondrial mass are measured after staining with MitoTracker® Red. F-actin is measured after staining with an Alexa Fluor® 488 conjugate of phalloidin (Ax488-ph). Changes in the actin cytoskeleton have been used as a potential parameter related to apoptotic changes. […]

[7] = test system: ovarian cancer cell lines that do not amplify PVT1; experiment: High content imaging for apoptosis (Cellomics Multiparameter Apoptosis 1 HitKit), lines that do not amplify PVT1; assay type: cell-based, human
Description: as §3, §4

Compound | effect on tumor size [1] | cell cycle progression (BrdUrd/DNA distributions) [2] | cell proliferation / G1-phase block [2] | cell cycle progression (BrdUrd/DNA distributions) [3] | apoptosis induced DNA fragments (DNA distribution below the G1/diploid peak) [4] | induction of apoptosis / cell death [4] | induction of apoptosis / cell death [5] | induction of apoptosis / cell death ([5]; listed as siRNA against PVT1) | S phase proportion (BrdU) ([2]; cell lines overexpressing PVT1, vs untreated, lipofectamine 2000 and GFP controls, FIG. 7B) | cell proliferation / G1-phase block ([2]; listed as siRNAs against PVT1) | apoptotic levels (nuclear morphology, mitochondrial mass/potential, f-actin) ([6]; cell lines that amplify PVT1, FIG. 10C) | F-actin content ([6]; cell lines which overamplify PVT1, after PVT1 siRNA) | growth inhibition ([3]; cell lines that do not amplify or over express PVT1) | effect on cell cycle (S phase, BrdU) ([3]; ovarian cancer cell lines not expressing PVT1, FIG. 7C) | F-actin content and thereby apoptosis ([7]; cell lines having no increased PVT1 amplification, FIG. 10A) | apoptotic levels (nuclear morphology, mitochondrial mass/potential, f-actin) ([7]; cell lines that do not amplify PVT1) | apoptotic blebbing (phase contrast photomicrographs) ([4]; HEY cells, treated 48 hours, FIG. 8) | induction of apoptosis / cell death ([4]; listed as siRNA against PVT1) | induction of apoptosis / cell death ([4]; listed as siRNAs against PVT1)
CC(=O)O[C@H]1C(=O)[C@@]2(C)[C@H]([C@H](OC(=O)c3ccccc3)[C@]3(O)C[C@H](OC(=O)[C@H](O)[C@@H](NC(=O)c4ccccc4)c4ccccc4)C(C)=C1C3(C)C)[C@]1(OC(C)=O)CO[C@@H]1C[C@@H]2O [paclitaxel] | effective in reducing tumor size |  |  |  |  |  |  |  |  |  |  |  |  |  |  |  |  |  | 
MYC siRNA: siRNA against c-myc; sense GAGGCGAACACACAACGUC (SEQ ID NO: 18), antisense GACGUUGUGUGUUCGCCUC (SEQ ID NO: 19) (listed as RNA, chemistry not given here) |  | strongly inhibited | blocks cells in the G1-phase of the cell cycle | not in the unamplified line | not after MYC inhibition | does not induce apoptosis |  |  |  |  |  |  |  |  |  |  |  |  | 
PVT1 siRNA: siRNA against PVT1; sense CAGCCAUCAUGAUGGUACU (SEQ ID NO: 3), antisense AGUACCAUCAUGAUGGCUG (SEQ ID NO: 4) (listed as RNA, chemistry not given here) |  | strongly inhibited | inhibit cell proliferation by blocking cell in the G1-phase of the cell cycle; also recorded: blocks cells in the G1 phase of the cell cycle | not in the unamplified line | Apoptosis induced DNA fragments are present after PVT1 inhibition | inducing cell death; also recorded: induces apoptosis | do not inhibit growth or induce cell death | no apoptotic response | much shorter than in the 3 control columns | particularly effective in inhibiting proliferation | increased apoptotic levels, higher than levels of cells treated with paclitaxel | Increased F-actin content | do not inhibit growth | does not affect the cell cycle | remained low | normal apoptotic levels | apoptotic blebbing after siRNA inhibition of PVT1 is apparent | induced apoptosis | inducing apoptosis
